Measured values from patent publication US20160257697A1, “THIOPHENE-SUBSTITUTED TETRACYCLIC COMPOUNDS AND METHODS OFUSE THEREOF FOR THE TREATMENT OF VIRAL DISEASES” (priority 2013, published 2016).
Read-outs that look alike come from different tables or passages of the source.

Assays:
Experiment in all cases: microbe, parasite or virus in culture
Type in all cases: cell-based, Hepatitis C virus (HCV)
[1] = test system: HCV replicon 1B; settings: Replicon Assay B
[2] = test system: HCV replicon 1AQ30D; settings: Replicon Assay B
[3] = test system: HCV replicon 1A; settings: Replicon Assay A
Procedure, shortened: (§1)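 Replicon cells incubated with compound for 3 days in medium with 5% FBS and 0.5% DMSO final. Replicon RNA measured in lysates by multiplex real-time RT-PCR (Neo set) against cyclophilin control, quantified from standard curves of Ct versus log ng replicon total RNA.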

[4] = test system: HCV replicon 2B; settings: Replicon Assay A
Procedure, shortened: as §1

[5] = test system: HCV replicon 1AY93H; settings: Replicon Assay A
Procedure, shortened: as §1

[6] = read-out: 1A Q30D IC50, HCV replicon 1A Q30D
[7] = read-out: 2B IC50, HCV replicon 2B
[8] = read-out: 1A Y93H IC50, HCV replicon 1A Y93H
[9] = Hepatitis C virus, read-out: 1A Q30D IC50 (nM), replicon 1AQ30D
[10] = Hepatitis C virus, read-out: 2B IC50 (nM), replicon 2B
[11] = Hepatitis C virus, read-out: 1A Y93H IC50 (nM), replicon 1AY93H
[12] = read-out: 1A Q30D IC50, replicon 1AQ30D
[13] = read-out: 1A Y93H IC50, replicon 1AY93H
[14] = Hepatitis C virus, HCV replicon 1B

Row | Structure (SMILES) | IC50 ([3]; HCV replicon 1A) [nM] | IC50 [4, 7] [nM] | IC50 [5, 8] [nM] | IC50 ([1]; Hepatitis C virus, replicon 1B) [nM] | IC50 [2, 9] [nM] | IC50 ([3]; Hepatitis C virus, replicon 1A) [nM] | IC50 [4, 10] [nM] | IC50 [5, 11] [nM] | also measured
1 | COC(=O)N[C@H](C(=O)N1CCC[C@H]1c1ncc(-c2cc(F)c3c(c2)OC(c2cc4c(s2)CCC4)n2c-3cc3cc(-c4cnc([C@@H]5C[C@H]6C[C@H]6N5C(=O)[C@@H](NC(=O)OC)C5C[C@@H](C)O[C@@H](C)C5)[nH]4)ccc32)[nH]1)C(C)C (single isomer, unassigned) [Compound 551] | 0.00629 | 0.0847 | 0.0167 | – | – | – | – | – | IC50 ([1]; HCV replicon 1B): 0.00791 nM; IC50 [2, 6]: 0.172 nM
2 | COC(=O)NC(C(=O)N1[C@@H]2C[C@@H]2C[C@H]1c1ncc(-c2ccc3c(c2)cc2n3C(c3ccc(C4CC4)s3)Oc3cc(-c4cnc([C@@H]5CCCN5C(=O)[C@@H](NC(=O)OC)C(C)C)[nH]4)cc(F)c3-2)[nH]1)C(C)(C)F (stereo partly shown) [Compound 93] | – | – | – | 0.0025 | 0.053 | 0.003 | 0.054 | 0.007 | –
3 | COC(=O)NC(C(=O)N1CCC[C@H]1c1ncc(-c2ccc3c(c2)cc2n3C(c3cc4ccccc4s3)Oc3cc(-c4cnc([C@@H]5CCCN5C(=O)[C@@H](NC(=O)OC)C5CCOCC5)[nH]4)cc(F)c3-2)[nH]1)C(C)(C)F (single isomer, unassigned) [Compound 183] | – | – | – | – | – | – | – | – | IC50 ([1]; replicon 1B): 0.0024 nM; IC50 [2, 12]: 1.08 nM; IC50 ([3]; replicon 1A): 0.0012 nM; IC50 ([4]; read-out: 2B IC50, replicon 2B): 0.68 nM; IC50 [5, 13]: 0.74 nM
4 | COC(=O)NC(C(=O)N1CCC[C@H]1c1ncc(-c2ccc3c(c2)cc2n3C(c3ccc(C4CCC4)s3)Oc3cc(-c4cnc([C@@H]5CCCN5C(=O)[C@@H](NC(=O)OC)C(C)C)[nH]4)cc(F)c3-2)[nH]1)C1C[C@@H](C)O[C@@H](C)C1 (stereo partly shown) [Compound 374] | – | – | – | 0.0022 | 0.0221 | 0.0015 | 0.0041 | 0.0035 | –
5 | COC(=O)NC(C(=O)N1[C@@H]2C[C@@H]2C[C@H]1c1ncc(-c2ccc3c(c2)cc2n3C(c3ccc(C4CC4)s3)Oc3cc(-c4cnc([C@@H]5CCCN5C(=O)[C@@H](NC(=O)OC)C(C)C)[nH]4)cc(F)c3-2)[nH]1)C1C[C@@H](C)O[C@@H](C)C1 (single isomer, unassigned) [Compound 273] | – | – | – | – | – | – | – | – | IC50 ([1]; replicon 1B): 0.002 nM; IC50 [2, 12]: 2.06 nM; IC50 ([3]; replicon 1A): 0.0015 nM; IC50 ([4]; read-out: 2B IC50, replicon 2B): 0.74 nM; IC50 [5, 13]: 0.18 nM
6 | COCc1ccc(C2Oc3cc(-c4cnc([C@@H]5CCCN5C(=O)[C@@H](NC(=O)OC)C(C)C)[nH]4)cc(F)c3-c3cc4cc(-c5c[nH]c([C@@H]6CCCN6C(=O)[C@@H](NC(=O)OC)C(C)C)n5)ccc4n32)s1 (single isomer, unassigned) [Compound 513] | 0.00393 | 0.409 | 0.0385 | – | – | – | – | – | IC50 [1, 14]: 0.00425 nM; IC50 ([2]; Hepatitis C virus, read-out: 1A Q30D IC50, HCV replicon 1A Q30D): 0.986 nM
7 | COC(=O)NC(C(=O)N1CCC[C@H]1c1ncc(-c2ccc3c(c2)cc2n3C(c3ccc(CC4CC4)s3)Oc3cc(-c4cnc([C@@H]5CCCN5C(=O)[C@@H](NC(=O)OC)C(C)C)[nH]4)cc(F)c3-2)[nH]1)C1C[C@@H](C)O[C@@H](C)C1 (single isomer, unassigned) [Compound 375] | – | – | – | 0.0026 | 0.315 | 0.0015 | 0.024 | 0.0269 | –
8 | COC(=O)NC(C(=O)N1[C@@H]2C[C@@H]2C[C@H]1c1ncc(-c2ccc3c(c2)c(F)c2n3C(c3ccc(C4CC4)s3)Oc3cc(-c4cnc([C@@H]5CCCN5C(=O)[C@@H](NC(=O)OC)C(C)C)[nH]4)ccc3-2)[nH]1)C1C[C@@H](C)O[C@@H](C)C1 (single isomer, unassigned) [Compound 644] | 0.00257 | 0.0272 | 0.005 | – | – | – | – | – | IC50 [1, 14]: 0.0013 nM; IC50 [2, 6]: 0.0889 nM
